Where “and” joins values, the source holds several entries; their conditions need not be identical. Identical values can stand only once.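 Assay format: 96-well plates, 48-hour exposure. The concentration for 50% growth inhibition is given as GI50. TGI: total growth inhibition.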
Columns and labels:
Assay in all cases: DTP human tumour cell line panel, 48 h
UO-31 renal = system: UO-31 renal
IGROV1 ovarian = system: IGROV1 ovarian
CAKI-1 renal = system: CAKI-1 renal
NCI/ADR-RES ovarian = system: NCI/ADR-RES ovarian
SK-MEL-2 melanoma = system: SK-MEL-2 melanoma
HCT-15 colon = system: HCT-15 colon
DU-145 prostate = system: DU-145 prostate
HL-60(TB) leukemia = system: HL-60(TB) leukemia
HOP-92 NSCLC = system: HOP-92 NSCLC
SF-268 CNS = system: SF-268 CNS
OVCAR-4 ovarian = system: OVCAR-4 ovarian
M14 melanoma = system: M14 melanoma
SNB-19 CNS = system: SNB-19 CNS
PC-3 prostate = system: PC-3 prostate
SK-MEL-5 melanoma = system: SK-MEL-5 melanoma
RPMI-8226 leukemia = system: RPMI-8226 leukemia
NCI-H23 lung = system: NCI-H23 lung
T-47D breast = system: T-47D breast
SK-OV-3 ovarian = system: SK-OV-3 ovarian
SK-MEL-28 melanoma = system: SK-MEL-28 melanoma
OVCAR-5 ovarian = system: OVCAR-5 ovarian
A498 renal = system: A498 renal
HCC-2998 colon = system: HCC-2998 colon
OVCAR-3 ovarian = system: OVCAR-3 ovarian
TK-10 renal = system: TK-10 renal
MOLT-4 leukemia = system: MOLT-4 leukemia
A549 NSCLC = system: A549 NSCLC
HCT-116 colon = system: HCT-116 colon
SN12C renal = system: SN12C renal
EKVX NSCLC = system: EKVX NSCLC
MCF7 breast = system: MCF7 breast
HOP-62 NSCLC = system: HOP-62 NSCLC
OVCAR-8 ovarian = system: OVCAR-8 ovarian
UACC-257 melanoma = system: UACC-257 melanoma
HS 578T breast = system: HS 578T breast
MDA-MB-435 = system: MDA-MB-435
HT29 colon = system: HT29 colon
U251 CNS = system: U251 CNS
BT-549 breast = system: BT-549 breast
COLO 205 colon = system: COLO 205 colon
SNB-75 CNS = system: SNB-75 CNS
SW-620 colon = system: SW-620 colon
LOX IMVI melanoma = system: LOX IMVI melanoma
SF-539 CNS = system: SF-539 CNS
NCI-H226 lung = system: NCI-H226 lung
SF-295 CNS = system: SF-295 CNS
KM12 colon = system: KM12 colon
NCI-H460 lung = system: NCI-H460 lung
K-562 leukemia = system: K-562 leukemia
CCRF-CEM leukemia = system: CCRF-CEM leukemia
UACC-62 melanoma = system: UACC-62 melanoma
MALME-3M melanoma = system: MALME-3M melanoma
MDA-MB-231 breast = system: MDA-MB-231 breast
786-0 renal = system: 786-0 renal

CCCCCCCCCCC(C[N+](C)(C)C/C=C/c1ccccc1)C(O)c1ccccc1 (configuration not stated)
GI50 (UO-31 renal): 2090 nM
TGI (UO-31 renal): 4510 nM
GI50 (IGROV1 ovarian): 999 nM
TGI (IGROV1 ovarian): 2540 nM
GI50 (CAKI-1 renal): 12200 nM
TGI (CAKI-1 renal): 34100 nM
GI50 (NCI/ADR-RES ovarian): 7500 nM
TGI (NCI/ADR-RES ovarian): 34600 nM
GI50 (SK-MEL-2 melanoma): 1750 nM
TGI (SK-MEL-2 melanoma): 3240 nM
GI50 (HCT-15 colon): 2290 nM
TGI (HCT-15 colon): 6310 nM
GI50 (DU-145 prostate): 1760 nM
TGI (DU-145 prostate): 3370 nM
GI50 (HL-60(TB) leukemia): 1100 nM
TGI (HL-60(TB) leukemia): 2630 nM
GI50 (HOP-92 NSCLC): 435 nM
TGI (HOP-92 NSCLC): 2080 nM
GI50 (SF-268 CNS): 1470 nM
TGI (SF-268 CNS): 3200 nM

COc1cc(C(=O)O[C@H](C(=O)NCCNC(=O)[C@@H](OC(=O)c2cc(OC)cc3c(C)cccc23)[C@]2(C)CO2)[C@]2(C)CO2)c2cccc(C)c2c1
GI50 (OVCAR-4 ovarian): 125 nM
TGI (OVCAR-4 ovarian): > 100000 nM
GI50 (M14 melanoma): 178 nM
TGI (M14 melanoma): 696 nM
GI50 (SNB-19 CNS): 220 nM
GI50 (PC-3 prostate): 109 nM
GI50 (SK-MEL-5 melanoma): 33.1 nM
TGI (SK-MEL-5 melanoma): 280 nM
GI50 (RPMI-8226 leukemia): 282 nM
TGI (RPMI-8226 leukemia): 10600 nM
GI50 (NCI-H23 lung): < 10 nM
TGI (NCI-H23 lung): 98.7 nM
GI50 (UO-31 renal): 137 nM
GI50 (T-47D breast): 417 nM
TGI (T-47D breast): 3480 nM
GI50 (SK-OV-3 ovarian): 827 nM
TGI (SK-OV-3 ovarian): 9740 nM
GI50 (SK-MEL-28 melanoma): 52.4 nM
GI50 (OVCAR-5 ovarian): 381 nM
TGI (OVCAR-5 ovarian): 2080 nM
GI50 (IGROV1 ovarian): < 47.5 nM
TGI (IGROV1 ovarian): 5280 nM
GI50 (A498 renal): 2210 nM
TGI (A498 renal): 4350 nM
GI50 (HCC-2998 colon): 95.3 nM
TGI (HCC-2998 colon): 2490 nM
GI50 (OVCAR-3 ovarian): 721 nM
TGI (OVCAR-3 ovarian): 7630 nM
GI50 (TK-10 renal): 475 nM
TGI (TK-10 renal): 1900 nM
GI50 (MOLT-4 leukemia): < 10 nM
TGI (MOLT-4 leukemia): > 100000 nM
GI50 (A549 NSCLC): < 42.8 nM
TGI (A549 NSCLC): 1250 nM
GI50 (HCT-116 colon): < 28.5 nM
TGI (HCT-116 colon): 298 nM
GI50 (SN12C renal): 21.1 nM
TGI (SN12C renal): 263 nM
GI50 (EKVX NSCLC): 210 nM
TGI (EKVX NSCLC): 1550 nM
GI50 (CAKI-1 renal): 56.3 nM
TGI (CAKI-1 renal): 252 nM
GI50 (MCF7 breast): < 10 nM
TGI (MCF7 breast): 23.8 nM
GI50 (NCI/ADR-RES ovarian): 250 nM
TGI (NCI/ADR-RES ovarian): 1520 nM
GI50 (SK-MEL-2 melanoma): < 46.1 nM
GI50 (HOP-62 NSCLC): 160 nM
TGI (HOP-62 NSCLC): 919 nM
GI50 (HCT-15 colon): 179 nM
TGI (HCT-15 colon): 1330 nM
GI50 (OVCAR-8 ovarian): < 10 nM
TGI (OVCAR-8 ovarian): 68.3 nM
GI50 (DU-145 prostate): 257 nM
TGI (DU-145 prostate): 1460 nM
TGI (UACC-257 melanoma): 343 nM
GI50 (HL-60(TB) leukemia): < 10 nM
GI50 (HS 578T breast): 319 nM
TGI (HS 578T breast): > 100000 nM
TGI (MDA-MB-435): 696 nM
GI50 (HOP-92 NSCLC): 101 nM
TGI (HOP-92 NSCLC): 404 nM
GI50 (HT29 colon): < 19.8 nM
TGI (HT29 colon): 29100 nM
GI50 (U251 CNS): 22.5 nM
TGI (U251 CNS): 306 nM
GI50 (SF-268 CNS): < 10 nM
TGI (SF-268 CNS): 191 nM
GI50 (BT-549 breast): 335 nM
TGI (BT-549 breast): 3390 nM
GI50 (COLO 205 colon): 149 nM
GI50 (SNB-75 CNS): 304 nM
TGI (SNB-75 CNS): 1400 nM
GI50 (SW-620 colon): < 10 nM
TGI (SW-620 colon): > 100000 nM
GI50 (LOX IMVI melanoma): < 10 nM
GI50 (SF-539 CNS): < 34.8 nM
TGI (SF-539 CNS): 371 nM
GI50 (NCI-H226 lung): 660 nM
TGI (NCI-H226 lung): 2110 nM
GI50 (SF-295 CNS): 173 nM
TGI (SF-295 CNS): 793 nM
GI50 (KM12 colon): 43.8 nM
TGI (KM12 colon): 278 nM
GI50 (NCI-H460 lung): < 21.4 nM
TGI (NCI-H460 lung): 359 nM
GI50 (K-562 leukemia): < 19.3 nM
TGI (K-562 leukemia): 15300 nM
GI50 (CCRF-CEM leukemia): < 10 nM

COC(=O)NC/C=C\c1nc(CC/C=C\C(=O)OC2CC3CC(=O)O[C@H](/C=C/CC(C)C)C[C@H]4CCC(C)C(C[C@H](OC)CC(C2)O3)O4)co1 (some centres not stated)
GI50 (OVCAR-4 ovarian): 23400 nM
TGI (OVCAR-4 ovarian): > 100000 nM
GI50 (M14 melanoma): 4270 nM
TGI (M14 melanoma): > 100000 nM
GI50 (SNB-19 CNS): 23000 nM
TGI (SNB-19 CNS): > 100000 nM
GI50 (PC-3 prostate): 218 nM
TGI (PC-3 prostate): > 100000 nM
GI50 (SK-MEL-5 melanoma): < 10 nM
TGI (SK-MEL-5 melanoma): 19300 nM
GI50 (UO-31 renal): 25400 nM
TGI (UO-31 renal): > 100000 nM
GI50 (T-47D breast): 39100 nM
TGI (T-47D breast): > 100000 nM
GI50 (SK-OV-3 ovarian): 63900 nM
TGI (SK-OV-3 ovarian): > 100000 nM
GI50 (SK-MEL-28 melanoma): 12100 nM
TGI (SK-MEL-28 melanoma): > 100000 nM
GI50 (OVCAR-5 ovarian): 877 nM
TGI (OVCAR-5 ovarian): > 100000 nM
GI50 (IGROV1 ovarian): 2510 nM
TGI (IGROV1 ovarian): > 100000 nM
GI50 (A498 renal): 13600 nM
TGI (A498 renal): 57100 nM
GI50 (UACC-62 melanoma): 63.5 nM
TGI (UACC-62 melanoma): > 100000 nM
GI50 (TK-10 renal): 1550 nM
TGI (TK-10 renal): 74000 nM
GI50 (A549 NSCLC): < 10 nM
TGI (A549 NSCLC): > 100000 nM
GI50 (HCT-116 colon): < 10 nM
TGI (HCT-116 colon): 37500 nM
GI50 (SN12C renal): < 10 nM
TGI (SN12C renal): 28800 nM
GI50 (EKVX NSCLC): < 10 nM
TGI (EKVX NSCLC): 4800 nM
GI50 (MALME-3M melanoma): 17100 nM
TGI (MALME-3M melanoma): 45100 nM
GI50 (CAKI-1 renal): < 10 nM
TGI (CAKI-1 renal): 41100 nM
GI50 (MCF7 breast): < 10 nM
TGI (MCF7 breast): 10500 nM
GI50 (NCI/ADR-RES ovarian): 59000 nM
TGI (NCI/ADR-RES ovarian): > 100000 nM
GI50 (SK-MEL-2 melanoma): 20200 nM
TGI (SK-MEL-2 melanoma): > 100000 nM
GI50 (HOP-62 NSCLC): < 10 nM
TGI (HOP-62 NSCLC): 62700 nM
GI50 (OVCAR-8 ovarian): > 100000 nM
TGI (OVCAR-8 ovarian): > 100000 nM
GI50 (DU-145 prostate): 1540 nM
TGI (DU-145 prostate): > 100000 nM
GI50 (UACC-257 melanoma): > 100000 nM
TGI (UACC-257 melanoma): > 100000 nM
GI50 (HS 578T breast): 18200 nM
TGI (HS 578T breast): > 100000 nM
GI50 (HT29 colon): 742 nM
TGI (HT29 colon): > 100000 nM
GI50 (U251 CNS): 1420 nM
TGI (U251 CNS): > 100000 nM
GI50 (SF-268 CNS): < 10 nM
TGI (SF-268 CNS): 24300 nM
GI50 (BT-549 breast): 16 nM
TGI (BT-549 breast): 2950 nM
GI50 (COLO 205 colon): 1100 nM
TGI (COLO 205 colon): > 100000 nM
GI50 (SNB-75 CNS): 32500 nM
TGI (SNB-75 CNS): > 100000 nM
GI50 (SW-620 colon): < 10 nM
TGI (SW-620 colon): > 100000 nM
GI50 (SF-539 CNS): < 10 nM
TGI (SF-539 CNS): 114 nM
GI50 (NCI-H226 lung): 12900 nM
TGI (NCI-H226 lung): > 100000 nM
GI50 (MDA-MB-231 breast): 11300 nM
TGI (MDA-MB-231 breast): > 100000 nM
GI50 (SF-295 CNS): < 10 nM
TGI (SF-295 CNS): 61500 nM
GI50 (KM12 colon): 4250 nM
TGI (KM12 colon): > 100000 nM
GI50 (786-0 renal): < 10 nM
TGI (786-0 renal): > 100000 nM
GI50 (NCI-H460 lung): < 10 nM
TGI (NCI-H460 lung): 63500 nM
GI50 (K-562 leukemia): < 10 nM
TGI (K-562 leukemia): 20300 nM

c1ccc2c(c1)[nH]c1c2nc2sccn21
GI50 (SNB-75 CNS): 20600 nM and 44800 nM
TGI (SNB-75 CNS): > 100000 nM
